Data reported in patent publication US8748491B2, “Dietary and pharmaceutical compositions containing tricyclic diterpenes and their derivatives and their uses” (priority 2006, dated 2014).

Assays:
mouse = assay: Porsolt's forced swim test (FST); format: in vivo
Description: Mice were individually placed in cylinders (24.5 cm height, 19.5 cm internal diameter) containing 13.5 cm depth of water (22±0.5° C.) for a period of 6 minutes, behavioural parameters of interest being analysed during the final 4 minutes of the test, since the first 2 minutes include vigorous activity. Six cylinders were placed in a Perspex box, thus enabling six mice to be tested simultaneously.
Automatic monitoring of swim tests was enabled through the use of VideoMot2 software (TSE Technical and Scientific Equipment GmbH, Bad Homburg, Germany). All to experiments were observed via a black and white CCD camera. The rest:locomotion and stop:start thresholds, as determined by setting parameters in the software programme, determine the number of pixels which must change for a movement to be registered, enabling the software to determine whether a mouse is swimming or resting. The parameters which are automatically recorded include: rest time and locomotion time (ms), % rest and % locomotion, distance travelled (cm), speed of travel (cm/s) and number of stops.
Data were analysed by comparing treated groups with the untreated control group using Fisher's PLSD (StatView, SAS Institute Inc., Cary, N.C., USA)

[1] = target: T1, Monoamine oxidase B (MAO-B) (Homo sapiens, UniProt P27338); assay: Monoamine oxidase B inhibition (benzylamine substrate, H2O2/vanillic acid/HRP readout); format: biochemical
T1 sequence (P27338 1-520): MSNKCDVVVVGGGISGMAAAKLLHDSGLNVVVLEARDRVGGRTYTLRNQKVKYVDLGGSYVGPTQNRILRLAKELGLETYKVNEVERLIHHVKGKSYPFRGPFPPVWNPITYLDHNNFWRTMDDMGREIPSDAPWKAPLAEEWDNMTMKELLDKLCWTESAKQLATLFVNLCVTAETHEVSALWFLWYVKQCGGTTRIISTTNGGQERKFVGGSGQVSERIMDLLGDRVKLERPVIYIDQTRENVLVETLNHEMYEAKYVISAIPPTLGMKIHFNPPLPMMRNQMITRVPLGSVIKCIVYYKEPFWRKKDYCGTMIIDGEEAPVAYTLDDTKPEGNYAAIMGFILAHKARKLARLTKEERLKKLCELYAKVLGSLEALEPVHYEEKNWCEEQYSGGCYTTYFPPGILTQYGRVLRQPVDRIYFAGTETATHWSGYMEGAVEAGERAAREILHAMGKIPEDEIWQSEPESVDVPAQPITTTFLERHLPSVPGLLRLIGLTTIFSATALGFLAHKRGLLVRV
Description: (§1) The organic amines p-tyramine or benzylamine were used as substrates for the Monoamine oxidase A (MAO-A) and B (MAO-B) enzymes respectively. The H2O2 produced by this reaction was quantified by reaction with vanillic acid, catalysed by horse radish peroxidase (HRP).
(§2) The reactions were carried out in polystyrene microtitre plates. The MAO enzymes (final concentration 2 U/ml) were mixed with either p-tyramine (Sigma, final concentration 0.5 mM) or benzylamine (Sigma, final concentration 0.5 mM) as appropriate and the chromogenic solution (containing vanillic acid (Fluka), 4-aminoantipyrine (Fluka) and horse radish peroxidase (Sigma), final concentrations 0.25 mM, 0.125 mM and 1 U/ml respectively) in 0.2 M potassium phosphate buffer, pH 7.6. The reactions were followed in a microtitre plate absorbance reader e.g. Spectramax M5 (Molecular Devices Corporation). Absorbance readings at 495 nm were taken every 15 seconds for 40 minutes and the initial reaction velocities calculated by linear regression using SOFTmaxPro (Molecular Devices Corporation).
(§3) The effect of tricyclic diterpenes and their derivatives according to formula I on the monoamine oxidase enzymes was determined by their inclusion in the assay at a range of concentrations between 0.03 and 100 μM for 10 minutes prior to and during the incubation with substrate. To determine the effect of the compounds on the HRP catalyzed portion of the reaction, the MAO enzyme was replaced by H2O2 (Molecular Probes, final concentration 0.2 mM). The reactions containing MAO-A and MAO-B were both inhibited by tricyclic diterpenes and their derivatives according to formula I in a dose-dependent manner, whilst the control reaction, was unaffected. The measured IC50 values for inhibition of monoamine oxidase activity by carnosic acid, carnosic acid-12-methyl ether and 20-deoxo-carnosol are shown in Table 3.

[2] = target: T2, human serotonin re-uptake transporter (hSERT) (Homo sapiens, UniProt P31645); assay: Inhibition of tritiated serotonin uptake into transfected HEK-293 cells; format: cell-based; conditions: HEK-293 cells expressing hSERT; 20 nM [3H] serotonin, 40 min, 37° C.; mean ± s.e.m.
T2 construct: host or cells: HEK-293
Description: HEK-293 cells stably expressing the human serotonin re-uptake transporter (hSERT) were obtained from R. Blakely, Vanderbilt University, USA. The cells were routinely grown in Dulbecco's Modified Eagle's Medium (Bioconcept) containing 10% fetal calf serum, penicillin, streptomycin, L-glutamine and the antibiotic G418 and passaged by trypsinisation. On the day of assay, cells from 80% confluent flasks were harvested by gentle washing with warm phosphate buffered saline (PBS). […] Serotonin uptake into the cells was determined by addition of radio-labelled [^3H] serotonin (GE Healthcare) at a concentration of 20 nM, and incubation for 40 minutes at 37° C. with gentle shaking. At the end of this time unincorporated label was removed by filtration though Unifilter 96 GF/B plates (Perkin Elmer) using a Tomtec Mach III M cell harvester. The incorporated serotonin retained on the plates was quantified by liquid scintillation counting using Microscint-40/Topcount (Perkin Elmer).

[3] = target: T3, Monoamine oxidase A (MAO-A) (Homo sapiens, UniProt P21397); assay: Monoamine oxidase A inhibition (p-tyramine substrate, H2O2/vanillic acid/HRP readout); format: biochemical
T3 sequence (P21397 1-527): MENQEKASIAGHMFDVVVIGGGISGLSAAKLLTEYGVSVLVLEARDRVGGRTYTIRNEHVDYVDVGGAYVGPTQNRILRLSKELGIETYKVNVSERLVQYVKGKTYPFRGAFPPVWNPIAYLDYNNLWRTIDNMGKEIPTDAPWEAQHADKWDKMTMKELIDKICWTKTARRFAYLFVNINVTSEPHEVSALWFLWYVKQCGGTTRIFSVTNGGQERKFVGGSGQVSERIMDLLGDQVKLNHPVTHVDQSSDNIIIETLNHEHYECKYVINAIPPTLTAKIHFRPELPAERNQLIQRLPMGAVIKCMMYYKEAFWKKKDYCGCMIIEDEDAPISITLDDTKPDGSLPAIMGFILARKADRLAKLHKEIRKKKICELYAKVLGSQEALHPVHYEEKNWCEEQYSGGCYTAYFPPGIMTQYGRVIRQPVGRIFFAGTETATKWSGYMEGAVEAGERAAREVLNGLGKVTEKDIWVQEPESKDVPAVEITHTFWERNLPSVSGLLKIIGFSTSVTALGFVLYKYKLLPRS
Description: as §1, §2, §3

T2 sequence (P31645 whole entry): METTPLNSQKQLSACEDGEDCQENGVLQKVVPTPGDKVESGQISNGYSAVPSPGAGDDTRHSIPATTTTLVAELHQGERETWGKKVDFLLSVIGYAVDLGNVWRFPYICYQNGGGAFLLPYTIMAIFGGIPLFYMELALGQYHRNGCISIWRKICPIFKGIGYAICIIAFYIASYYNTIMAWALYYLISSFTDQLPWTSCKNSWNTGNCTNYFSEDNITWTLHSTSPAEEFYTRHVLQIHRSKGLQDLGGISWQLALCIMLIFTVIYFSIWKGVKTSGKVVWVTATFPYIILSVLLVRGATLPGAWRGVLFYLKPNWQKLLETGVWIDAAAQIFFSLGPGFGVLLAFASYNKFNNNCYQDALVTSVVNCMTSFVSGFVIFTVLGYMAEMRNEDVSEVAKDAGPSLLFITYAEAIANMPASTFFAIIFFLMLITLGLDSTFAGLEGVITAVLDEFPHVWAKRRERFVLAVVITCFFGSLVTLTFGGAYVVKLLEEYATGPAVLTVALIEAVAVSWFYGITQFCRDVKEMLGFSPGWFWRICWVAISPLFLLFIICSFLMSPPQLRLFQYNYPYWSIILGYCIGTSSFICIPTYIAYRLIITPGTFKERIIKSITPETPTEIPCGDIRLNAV

CC(C)c1cc2c(c(O)c1O)[C@@]1(C(=O)O)CCCC(C)(C)[C@@H]1CC2 [Carnosic acid, carnosic acid]
Duration of immobility (% change from control) (mouse; 10 mg/kg i.p., −30 min): −29% | Duration of immobility (% change from control) (mouse; 20 mg/kg i.p., −30 min): −30% | Duration of immobility (% change from control) (mouse; 30 mg/kg i.p., −30 min): −29% | Duration of immobility (% change from control) (mouse; 200 mg/kg p.o., −24, −5, −1 h): −38% | immobility behaviour (in words) (mouse; all doses tested, i.p. and p.o. administration): significantly reduced immobility behaviour | IC50 [1]: 8.6 ± 0.6 µM | IC50 [2]: 36.4 ± 6.8 µM | IC50 [3]: 4.4 ± 0.3 µM
